Test results published in PMC9501445 (2022).

Test system: 22GT (DNA, G4) GGGTTAGGGTTAGGGTTAGGGT
Test: ITC, global fit of coupled folding/binding model
Conditions: 100 mM K+; 1 mM cacodylate, 0.02 mM EDTA, pH 6.9, 3% DMSO, 25 °C; site 1 of 2 (intermediate I)

For C[n+]1cc(NC(=O)c2cccc(C(=O)Nc3cc4ccccc4[n+](C)c3)n2)cc2ccccc21, the “ΔG°” value was -9.6 ± 0.6 kcal/mol.
